The results in this text go back to the supplement of paper PMC10307832.

Test in all cases: relative viability (nuclei count vs DMSO), 5 days (fraction); higher = more cells survive
Compound in the test “CUDC-101 + Pictilisib”: C#Cc1cccc(Nc2ncnc3cc(OC)c(OCCCCCCC(=O)NO)cc23)c1 [CUDC-101] + CS(=O)(=O)N1CCN(Cc2cc3nc(-c4cccc5[nH]ncc45)nc(N4CCOCC4)c3s2)CC1 [Pictilisib] (partner 1 µM)
The method, boiled down: (§1)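 Lung cancer cell lines were pin-tool dosed in 1536-well plates on the day after seeding, with either a lone drug or a fixed anchor-drug dose plus five library-drug doses (not always all listed) in √10 steps. Nuclei were counted on 4× images after 5 days. Relative viability is the ratio of treated-well to vehicle-well nuclei counts, with each value a median of duplicate plates.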

Compound in the test “CUDC-101 + Vorinostat”: C#Cc1cccc(Nc2ncnc3cc(OC)c(OCCCCCCC(=O)NO)cc23)c1 [CUDC-101] + O=C(CCCCCCC(=O)Nc1ccccc1)NO [Vorinostat] (partner 1 µM)
The method, boiled down:
as §1

Compound in test [1]: C1=CC=C2C(=C1)N=C(S2)C(C#N)C3=NC(=NC=C3)NCCC4=CN=CC=C4 + Cc1nc(NC(=O)N2CCC[C@H]2C(N)=O)sc1-c1ccnc(C(C)(C)C(F)(F)F)c1 [Alpelisib] (partner 2 µM)
The method, boiled down: as §1

Compound in the test “Vandetanib + Alpelisib”: COc1cc2/c(=N/c3ccc(Br)cc3F)nc[nH]c2cc1OCC1CCN(C)CC1 [Vandetanib] + Cc1nc(NC(=O)N2CCC[C@H]2C(N)=O)sc1-c1ccnc(C(C)(C)C(F)(F)F)c1 [Alpelisib] (partner 2 µM)
The method, boiled down: as §1

Consider NCI-H322M, for which the relative viability turned out to be 0.522 with CUDC-101 + Pictilisib (first compound 0.01 µM); 0.546 in the test with CUDC-101 + Pictilisib (first compound 0.03162 µM); 0.439 with CUDC-101 + Pictilisib (first compound 0.1 µM); 0.417 with CUDC-101 + Pictilisib (first compound 0.3162 µM); 0.353 in the test with CUDC-101 + Pictilisib (first compound 1 µM); 0.858 in the test with CUDC-101 + Vorinostat (first compound 0.01 µM). Also, the relative viability in the test with CUDC-101 + Vorinostat (first compound 0.03162 µM) stood at 0.81; with CUDC-101 + Vorinostat (first compound 0.1 µM), 0.799; in the test with CUDC-101 + Vorinostat (first compound 0.3162 µM) it was 0.596; with CUDC-101 + Vorinostat (first compound 1 µM), 0.494; in test [1] (first compound 0.005 µM) it was 0.825; in test [1] (first compound 0.01581 µM) it was 0.77. In addition, the relative viability is 0.68 in test [1] (first compound 0.05 µM); 0.899 in test [1] (first compound 0.1581 µM); 0.709 in test [1] (first compound 0.5 µM); 0.772 in the test with Vandetanib + Alpelisib (first compound 0.02 µM); 0.746 with Vandetanib + Alpelisib (first compound 0.06325 µM); 0.777 with Vandetanib + Alpelisib (first compound 0.2 µM). For the same cell line, the relative viability turned out to be 0.709 in the test with Vandetanib + Alpelisib (first compound 0.6325 µM) and 0.866 with Vandetanib + Alpelisib (first compound 2 µM).
NCI-H1651: the relative viability stood at 0.55 in the test with CUDC-101 + Pictilisib (first compound 0.01 µM); 0.595 with CUDC-101 + Pictilisib (first compound 0.03162 µM); 0.689 with CUDC-101 + Pictilisib (first compound 0.1 µM); 0.605 in the test with CUDC-101 + Pictilisib (first compound 0.3162 µM); 0.328 with CUDC-101 + Pictilisib (first compound 1 µM); 0.539 with CUDC-101 + Vorinostat (first compound 0.01 µM). For the same cell line, the relative viability with CUDC-101 + Vorinostat (first compound 0.03162 µM) is 0.545; with CUDC-101 + Vorinostat (first compound 0.1 µM), 0.578; with CUDC-101 + Vorinostat (first compound 0.3162 µM) it was 0.51; in the test with CUDC-101 + Vorinostat (first compound 1 µM), 0.497; in test [1] (first compound 0.005 µM) it was 0.667; in test [1] (first compound 0.01581 µM), 1.07. The relative viability in test [1] (first compound 0.05 µM) was 1.12; in test [1] (first compound 0.1581 µM) it was 1.11; in test [1] (first compound 0.5 µM), 0.73; in the test with Vandetanib + Alpelisib (first compound 0.02 µM) it was 0.912; in the test with Vandetanib + Alpelisib (first compound 0.06325 µM) it was 0.905; in the test with Vandetanib + Alpelisib (first compound 0.2 µM), 0.953. Besides, the figures for the relative viability with Vandetanib + Alpelisib (first compound 0.6325 µM) and in the test with Vandetanib + Alpelisib (first compound 2 µM) were 1.02 and 0.837, respectively.
Take LCLC-97TM1: the relative viability in the test with CUDC-101 + Pictilisib (first compound 0.01 µM) is 0.276; with CUDC-101 + Pictilisib (first compound 0.03162 µM) it was 0.283; with CUDC-101 + Pictilisib (first compound 0.1 µM) it was 0.192; with CUDC-101 + Pictilisib (first compound 0.3162 µM) it was 0.226; in the test with CUDC-101 + Pictilisib (first compound 1 µM), 0.144; in the test with CUDC-101 + Vorinostat (first compound 0.01 µM) it was 0.815. Also, the relative viability was 0.778 with CUDC-101 + Vorinostat (first compound 0.03162 µM); 0.663 with CUDC-101 + Vorinostat (first compound 0.1 µM); 0.56 with CUDC-101 + Vorinostat (first compound 0.3162 µM); 0.195 in the test with CUDC-101 + Vorinostat (first compound 1 µM); 0.217 in test [1] (first compound 0.005 µM); 0.208 in test [1] (first compound 0.01581 µM). Further, the relative viability in test [1] (first compound 0.05 µM) was found to be 0.257; in test [1] (first compound 0.1581 µM), 0.257; in test [1] (first compound 0.5 µM) it was 0.217; with Vandetanib + Alpelisib (first compound 0.02 µM), 0.223; with Vandetanib + Alpelisib (first compound 0.06325 µM), 0.243; with Vandetanib + Alpelisib (first compound 0.2 µM), 0.204. In addition, the relative viability amounted to 0.22 in the test with Vandetanib + Alpelisib (first compound 0.6325 µM) and 0.209 with Vandetanib + Alpelisib (first compound 2 µM).
As to NCI-H727, the relative viability with CUDC-101 + Pictilisib (first compound 0.01 µM) was determined as 0.412; with CUDC-101 + Pictilisib (first compound 0.03162 µM), 0.355; with CUDC-101 + Pictilisib (first compound 0.1 µM), 0.283; with CUDC-101 + Pictilisib (first compound 0.3162 µM), 0.286; with CUDC-101 + Pictilisib (first compound 1 µM) it was 0.27; with CUDC-101 + Vorinostat (first compound 0.01 µM), 1.28. The relative viability with CUDC-101 + Vorinostat (first compound 0.03162 µM) turned out to be 1.15; with CUDC-101 + Vorinostat (first compound 0.1 µM), 0.958; with CUDC-101 + Vorinostat (first compound 0.3162 µM), 1.04; in the test with CUDC-101 + Vorinostat (first compound 1 µM), 0.642; in test [1] (first compound 0.005 µM) it was 0.508; in test [1] (first compound 0.01581 µM), 0.508. Further, the relative viability in test [1] (first compound 0.05 µM) stood at 0.566; in test [1] (first compound 0.1581 µM) it was 0.565; in test [1] (first compound 0.5 µM), 0.409; with Vandetanib + Alpelisib (first compound 0.02 µM), 0.619; in the test with Vandetanib + Alpelisib (first compound 0.06325 µM), 0.56; in the test with Vandetanib + Alpelisib (first compound 0.2 µM), 0.405. Moreover, the values for the relative viability with Vandetanib + Alpelisib (first compound 0.6325 µM) and with Vandetanib + Alpelisib (first compound 2 µM) were 0.496 and 0.322, respectively.
In the case of NCI-H1666, the relative viability with CUDC-101 + Pictilisib (first compound 0.01 µM) came to 0.395; with CUDC-101 + Pictilisib (first compound 0.03162 µM), 0.397; in the test with CUDC-101 + Pictilisib (first compound 0.1 µM), 0.322; in the test with CUDC-101 + Pictilisib (first compound 0.3162 µM) it was 0.394; with CUDC-101 + Pictilisib (first compound 1 µM), 0.271; with CUDC-101 + Vorinostat (first compound 0.01 µM) it was 1.1. The relative viability in the test with CUDC-101 + Vorinostat (first compound 0.03162 µM) was 1.01; in the test with CUDC-101 + Vorinostat (first compound 0.1 µM), 0.951; in the test with CUDC-101 + Vorinostat (first compound 0.3162 µM), 1.06; with CUDC-101 + Vorinostat (first compound 1 µM), 1.06; in test [1] (first compound 0.005 µM), 0.915; in test [1] (first compound 0.01581 µM) it was 0.971. In addition, the relative viability in test [1] (first compound 0.05 µM) was determined as 0.876; in test [1] (first compound 0.1581 µM), 1.11; in test [1] (first compound 0.5 µM), 0.892; in the test with Vandetanib + Alpelisib (first compound 0.02 µM), 0.89; in the test with Vandetanib + Alpelisib (first compound 0.06325 µM) it was 0.764; in the test with Vandetanib + Alpelisib (first compound 0.2 µM), 0.793. Besides, the results for the relative viability with Vandetanib + Alpelisib (first compound 0.6325 µM) and in the test with Vandetanib + Alpelisib (first compound 2 µM) were 0.668 and 0.401, respectively.
Turning to IA-LM, the relative viability in the test with CUDC-101 + Pictilisib (first compound 0.01 µM) stood at 0.311; with CUDC-101 + Pictilisib (first compound 0.03162 µM), 0.293; in the test with CUDC-101 + Pictilisib (first compound 0.1 µM) it was 0.322; in the test with CUDC-101 + Pictilisib (first compound 0.3162 µM), 0.233; with CUDC-101 + Pictilisib (first compound 1 µM) it was 0.106; with CUDC-101 + Vorinostat (first compound 0.01 µM) it was 0.997. Moreover, the relative viability with CUDC-101 + Vorinostat (first compound 0.03162 µM) is 0.915; in the test with CUDC-101 + Vorinostat (first compound 0.1 µM), 0.93; with CUDC-101 + Vorinostat (first compound 0.3162 µM), 0.797; with CUDC-101 + Vorinostat (first compound 1 µM), 0.586; in test [1] (first compound 0.01581 µM), 0.628; in test [1] (first compound 0.05 µM), 0.608. Also, the relative viability in test [1] (first compound 0.1581 µM) was found to be 0.916; in test [1] (first compound 0.5 µM) it was 0.734; with Vandetanib + Alpelisib (first compound 0.02 µM), 0.588; with Vandetanib + Alpelisib (first compound 0.06325 µM) it was 0.783; with Vandetanib + Alpelisib (first compound 0.2 µM), 0.791; in the test with Vandetanib + Alpelisib (first compound 0.6325 µM), 0.961. In the test with Vandetanib + Alpelisib (first compound 2 µM), the relative viability amounted to 0.811.
Take NCI-H1792: the relative viability in the test with CUDC-101 + Pictilisib (first compound 0.01 µM) stood at 0.361; with CUDC-101 + Pictilisib (first compound 0.03162 µM), 0.226; in the test with CUDC-101 + Pictilisib (first compound 0.1 µM), 0.28; in the test with CUDC-101 + Pictilisib (first compound 0.3162 µM) it was 0.316; in the test with CUDC-101 + Pictilisib (first compound 1 µM), 0.155; in test [1] (first compound 0.01581 µM), 0.817. The relative viability in test [1] (first compound 0.05 µM) worked out at 0.696; in test [1] (first compound 0.1581 µM) it was 0.891; in test [1] (first compound 0.5 µM), 0.517; with Vandetanib + Alpelisib (first compound 0.02 µM) it was 0.676; with Vandetanib + Alpelisib (first compound 0.06325 µM) it was 0.672; with Vandetanib + Alpelisib (first compound 0.2 µM), 0.694. Further, the relative viability with Vandetanib + Alpelisib (first compound 0.6325 µM) was 0.705; with Vandetanib + Alpelisib (first compound 2 µM), 0.565.
For NCI-H1299, the relative viability came to 0.978 with CUDC-101 + Pictilisib (first compound 0.01 µM); 0.839 with CUDC-101 + Pictilisib (first compound 0.03162 µM); 0.766 in the test with CUDC-101 + Pictilisib (first compound 0.1 µM); 0.653 in the test with CUDC-101 + Pictilisib (first compound 0.3162 µM); 0.412 with CUDC-101 + Pictilisib (first compound 1 µM); 1.06 in test [1] (first compound 0.005 µM). The relative viability in test [1] (first compound 0.01581 µM) stood at 1.14; in test [1] (first compound 0.05 µM), 1.04; in test [1] (first compound 0.1581 µM) it was 1.13; in test [1] (first compound 0.5 µM) it was 1.1; with Vandetanib + Alpelisib (first compound 0.02 µM) it was 0.956; with Vandetanib + Alpelisib (first compound 0.06325 µM), 0.997. Besides, the relative viability was determined as 1.07 in the test with Vandetanib + Alpelisib (first compound 0.2 µM), 1.09 in the test with Vandetanib + Alpelisib (first compound 0.6325 µM) and 1.04 in the test with Vandetanib + Alpelisib (first compound 2 µM).
